Test results published in patent US5464616A, “6β-substituted penicillanic acids as beta-lactamase inhibitors” (Synphar Laboratories, Ind., priority 1994, dated 1995).

Tests used:
[1] = biological target: T1, cephalosporinase, which was isolated from Enterobacter cloacae (Enterobacter cloacae, UniProt P05364); test: inhibition of representative cephalosporinase isolated from Enterobacter cloacae; format: biochemical; conditions: read-out: IC50 against representative cephalosporinase
T1 construct: which was isolated from Enterobacter cloacae; endogenous in cells; host or cells: Enterobacter cloacae
Description: […]. Because of such differences in IC50 value against different types of β-lactamases, these inhibitors are regarded as selective cephalosporinase-inhibitors at the low concentration.

[2] = system: class C cephalosporinases; conditions: chromosomally encoded inducible cephalosporinases; cited from earlier work
bacteria = conditions: in combination with amoxycillin, ampicillin, piperacillin, respectively; cited from earlier work
C. freundii S40 = test: MIC of cephalothin alone and in combination with inhibitor, C. freundii S40 (microbroth dilution); format: cell-based; conditions: Citrobacter freundii, cephalothin alone, MHB, 5 × 10^5 cfu/ml, 16 h/35° C.
Description: (§1) MIC values of cephalothin in combination with
(§2) β-lactamase inhibitors Ia and Ic.
(§3) Microbroth Dilution Method, MHB; Inoculum, 5 × 10^5 cfu/ml;
(§4) Incubation, 16 h/35° C.;
(§5) *Concentration of inhibitor = 5 mg/ml (fixed).

E. aerogenes S95 = test: MIC of cephalothin alone and in combination with inhibitor, E. aerogenes S95 (microbroth dilution); format: cell-based; conditions: Klebsiella aerogenes, cephalothin alone, MHB, 5 × 10^5 cfu/ml, 16 h/35° C.
Description: as §1, §2, §3, §4, §5

Gram-negative bacteria = test: whole cell bacteria: antibacterial activity of the inhibitors alone and synergy with cephalothin; format: cell-based; conditions: for synergistic activity against Gram-negative bacteria: in combination with cephalothin, whole cell bacteria; for antibacterial activity of the inhibitors themselves: inhibitor alone

T1 sequence (P05364 21-381): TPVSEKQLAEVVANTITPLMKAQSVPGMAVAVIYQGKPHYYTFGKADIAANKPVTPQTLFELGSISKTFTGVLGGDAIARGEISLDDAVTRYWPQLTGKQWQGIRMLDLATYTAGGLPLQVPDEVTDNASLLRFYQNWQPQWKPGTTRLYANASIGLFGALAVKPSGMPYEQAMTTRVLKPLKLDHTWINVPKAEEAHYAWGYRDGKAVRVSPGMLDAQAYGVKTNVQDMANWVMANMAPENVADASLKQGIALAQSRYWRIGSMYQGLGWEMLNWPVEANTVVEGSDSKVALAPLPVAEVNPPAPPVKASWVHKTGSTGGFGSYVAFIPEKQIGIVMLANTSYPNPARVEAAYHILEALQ

IC50 [1] [nM] | Compound | protection of antibiotics from class C cephalosporinases [2] | enhancement of effectiveness of conventional antibiotics (bacteria) | further results
150 | CCOC(=O)C(C(=O)N[C@@H]1C(=O)N2[C@@H](C(=O)O)C(C)(C)S(=O)(=O)[C@H]12)=C1SCCS1 [Id, 6β-[(1,3-Dithiolan-2-ylidene)(ethoxycarbonyl)acetamido]-2,2-dimethylpenam-3-carboxylic acid 1,1-dioxide] |  |  | 
7 | C=CCOC(=O)C(C(=O)N[C@@H]1C(=O)N2[C@@H]1SC(C)(C)[C@@H]2C(=O)O)=C1SC=CS1 [IIa, 6β-[(Allyloxycarbonyl)(1,3-dithiolen-2-ylidene)acetamido]-2,2-dimethylpenam-3-carboxylic acid] |  |  | 
 | O=C(O)[C@H]1/C(=C/CO)O[C@@H]2CC(=O)N21 [clavulanic acid] | failed to protect the antibiotics | proved to enhance the effectiveness of conventional antibiotics against many bacteria | 
 | CC(=O)OCC1=C(C(=O)O)N2C(=O)[C@@H](NC(=O)Cc3cccs3)[C@H]2SC1 [Cephalothin] |  |  | MIC (C. freundii S40): 256 µg/mL; MIC (E. aerogenes S95): > 256 µg/mL
 | C[C@]1(Cn2ccnn2)[C@H](C(=O)O)N2C(=O)C[C@H]2S1(=O)=O [tazobactam] | failed to protect the antibiotics | proved to enhance the effectiveness of conventional antibiotics against many bacteria | 
0.49 | CCOC(=O)C(C(=O)N[C@@H]1C(=O)N2[C@@H]1SC(C)(C)[C@@H]2C(=O)O)=C1SCCS1 [Ib, 6β-[(1,3-Dithiolan-2-ylidene)(ethoxycarbonyl)acetamido]-2,2-dimethylpenam-3-carboxylic acid] |  |  | 
 | CC1(C)[C@H](C(=O)O)N2C(=O)C[C@H]2S1(=O)=O [sulbactam] | failed to protect the antibiotics | proved to enhance the effectiveness of conventional antibiotics against many bacteria | 

Compound | IC50 [1] [nM] | protection of antibiotics from class C cephalosporinases [2] | enhancement of effectiveness of conventional antibiotics (bacteria) | further results
CC1(C)S[C@@H]2[C@H](NC(=O)C(C(=O)O)=C3SCCS3)C(=O)N2[C@H]1C(=O)O [Ic, Disodium 6β-[carboxylato(1,3-dithiolan-2-ylidene)acetamido]-2,2-dimethylpenam-3-carboxylate] | 9.1 |  |  | synergistic activity against Gram-negative bacteria (Gram-negative bacteria): synergistic activity; antibacterial activity of the inhibitors themselves (Gram-negative bacteria): no antibacterial activity at the concentration up to 128 mg/ml
COC(=O)C(C(=O)N[C@@H]1C(=O)N2[C@@H]1SC(C)(C)[C@@H]2C(=O)O)=C1SCCS1 [Ia, 6β-[(1,3-Dithiolan-2-ylidene)(methoxycarbonyl)acetamido]-2,2-dimethylpenam-3-carboxylic acid] | 0.61 |  |  | synergistic activity against Gram-negative bacteria (Gram-negative bacteria): synergistic activity; antibacterial activity of the inhibitors themselves (Gram-negative bacteria): no antibacterial activity at the concentration up to 128 mg/ml
